# Laboratory results reported in patent publication US20230112484A1, “COMPOSITIONS FOR CROP PROTECTION” (Agrematch Ltd., priority 2020, published 2023).
# Legend:
# Assay type in all cases: in vivo
# Amaranthus palmeri [1] = assay: Pre-emergence application (Example 5); settings: score 0 = complete germination inhibition, 100 = no effect
# Description: For pre-emergence application, compounds were dissolved in DMSO and then in distilled water to get 0.1-2 mg/ml solution with 2% DMSO. 2% DMSO solution in water was used as a negative control. As a positive control, 0.2 mg/ml oxyfluorfen ([…]) solution was used. For pre-emergence application, flowerpots were filled with 30 g of soil, and 4-5 Amaranthus palmeri seeds were sowed in each flowerpot. Each treatment contained 3 flowerpots. Each flowerpot was sprayed with 1.5 ml of the dissolved compound. Soil was let dry for about 1 hour at room conditions, and then each flowerpot was sub-irrigated with 40 ml water and incubated under conditions provided below. Amaranthus palmeri was incubated at 25° C. for 8 hr in dark, followed by 16 hr at 30° C. in light. Germination was assessed and scored after 4-7 days. Scoring scale: 0-complete germination inhibition, 100-no effect.
# Amaranthus palmeri [2] = assay: Post-emergence application (Example 5); settings: score 0 = complete phytotoxic effect, 100 = no effect
# Description: (§1) For post-emergence application, compounds were dissolved in DMSO and then in distilled water to get 0.05-2 mg/ml solution with 2% DMSO. Break-Thru surfactant was added to a final concentration of 0.05%. Negative control—an aqueous solution of 2% DMSO and 0.05% Break-Thru. Positive control—2 mg/ml Glyphosate (Roundup). For post-emergence application, 1.5 ml of each compound solution were sprayed on the foliage of Amaranthus palmeri, which were 10 days old at the day of the experiment. Each treatment contained 3 pots. Plants were let dry for about 15 minutes at room conditions, and then incubated at controlled growth chambers. Phytotoxicity was assessed and scored 4-10 days after applications. Scoring scale: 0—complete phytotoxic effect, 100—no effect.
# Setaria viridis = assay: Herbicidal effect against Setaria viridis (Example 5); settings: for Herbicidal effect against Setaria viridis, result in words: in vivo
# Amaranthus palmeri [3] = assay: Soil germination (Example 1); settings: for Amaranthus palmeri soil germination: score 0 = complete germination inhibition, 100 = no effect; for soil germination of Amaranthus palmeri, result in words: concentration not given
# Description: (§2) Compounds were dissolved in DMSO and then in distilled water to get 0.01-2 mg/ml solution with 1% or 2% DMSO. 1% or 2% DMSO solution in water was used as a negative control. As a positive control, 0.1 or 0.2 mg/ml oxyfluorfen (Galigan) solution was used.
# (§3) Flowerpots were filled with 30 g of soil, and 4-5 seeds were sowed in each flowerpot. Each treatment contained 3 flowerpots. Each flowerpot was sprayed with 1.5 ml of the dissolved compound. Soil was let dry for about 1 hour at room conditions, and then each flowerpot was sub-irrigated with 40 ml water and incubated under conditions provided below.
# (§4) Amaranthus palmeri was incubated at 25° C. for 8 hr in dark, followed by 16 hr at 30° C. in light. Lolium rigidum was incubated at 21° C. for 8 hr in dark, followed by 16 hr at 21° C. in light. Germination was assessed and scored after 4-7 days. Scoring scale: 0—complete germination inhibition, 100—no effect.
# Triticum vulgare [4] = assay: Foliar experiment (Example 2); settings: 0.1 mg/ml; score 0 = complete phytotoxic effect, 100 = no effect
# Description: as §1, with “Compounds were” for “For post-emergence application, compounds were”, “get 0.1 or 0.5” for “get 0.05-2”, “(Roundup).” for “(Roundup). For post-emergence application,”, “of different plants,” for “of Amaranthus palmeri,”, “were 6-16” for “were 10”, “effect. [table]” for “effect.”
# Zea mays [5] = assay: Foliar experiment (Example 2); settings: 0.1 mg/ml; score 0 = complete phytotoxic effect, 100 = no effect
# Description: as §1, with “Compounds were” for “For post-emergence application, compounds were”, “get 0.1 or 0.5” for “get 0.05-2”, “(Roundup).” for “(Roundup). For post-emergence application,”, “of different plants,” for “of Amaranthus palmeri,”, “were 6-16” for “were 10”, “effect. [table]” for “effect.”
# Abutilon theophrasti = assay: Soil germination (Example 3); settings: 0.1 mg/ml; score 0 = complete germination inhibition, 100 = no effect; after 7 days
# Description: (§5) Compounds were dissolved in DMSO and then in distilled water to get 0.1 or 0.5 mg/ml solution with 2% DMSO. 2% DMSO solution in water was used as a negative control. No positive control was used in this assay. Flowerpots were filled with 30 g of soil, each treatment contained three flowerpots. Each flowerpot was sprayed with 1.5 ml of the dissolved compound. Soil was let dry for about 1 hour at room conditions, and then each flowerpot was sub-irrigated with 40 ml water and incubated at controlled growth chambers, under conditions provided on table 6. Gemination was assessed and scored after 7 days. Scoring scale: 0—complete germination inhibition, 100—no effect. [table]
# Amaranthus palmeri [6] = assay: Soil germination (Example 3); settings: 0.1 mg/ml; score 0 = complete germination inhibition, 100 = no effect; after 7 days
# Description: as §5
# Echinochloa colonum = assay: Soil germination (Example 3); settings: 0.1 mg/ml; score 0 = complete germination inhibition, 100 = no effect; after 7 days
# Description: as §5
# Lolium rigidum [7] = assay: Soil germination (Example 3); settings: 0.1 mg/ml; score 0 = complete germination inhibition, 100 = no effect; after 7 days
# Description: as §5
# Setaria adhaerens = assay: Soil germination (Example 3); settings: 0.1 mg/ml; score 0 = complete germination inhibition, 100 = no effect; after 7 days
# Description: as §5
# Triticum vulgare [8] = assay: Soil germination (Example 3); settings: 0.1 mg/ml; score 0 = complete germination inhibition, 100 = no effect; after 7 days
# Description: as §5
# Zea mays [9] = assay: Soil germination (Example 3); settings: 0.1 mg/ml; score 0 = complete germination inhibition, 100 = no effect; after 7 days
# Description: as §5
# Amaranthus palmeri [10] = assay: Residual activity greenhouse assay; settings: seeds sowed three weeks after pre-emergence application
# Text: Residual activity of Compound 1 and Compound 2 was examined in greenhouse assay. Three weeks after pre-emergence application, new Amaranthus palmeri seeds were sowed on the same pots and germination was followed.
# Lolium rigidum [11] = assay: Soil germination (Example 1); settings: for Lolium rigidum soil germination: score 0 = complete germination inhibition, 100 = no effect; for soil germination of Lolium rigidum, result in words: concentration not given
# Description: as §2, §3, §4
# [12] = 2 mg/ml, 4-10 days after application
structure (smiles),measurement,setting,value
CC(Cl)/C=C/C(=O)N(CCC(C)C)Cc1cnc(Cl)s1 (centres unmarked) [Compound 15],Pre-emergence Amaranthus palmeri herbicidal activity,Amaranthus palmeri [1]; 0.1 mg/ml,20
same,Pre-emergence Amaranthus palmeri herbicidal activity,Amaranthus palmeri [1]; 0.25 mg/ml,0
same,Post-emergence Amaranthus palmeri herbicidal activity,Amaranthus palmeri [2]; 0.25 mg/ml,5
same,Post-emergence Amaranthus palmeri herbicidal activity,Amaranthus palmeri [2]; 0.5 mg/ml,0
same,"Herbicidal effect against Setaria viridis, result in words",Setaria viridis,moderate herbicidal effect
CC#CCN(CC(C)C)C(=O)/C=C/C(C)Cl (centres unmarked) [Compound 7],Pre-emergence Amaranthus palmeri herbicidal activity,Amaranthus palmeri [1]; 0.1 mg/ml,10
same,Pre-emergence Amaranthus palmeri herbicidal activity,Amaranthus palmeri [1]; 0.25 mg/ml,5
same,Pre-emergence Amaranthus palmeri herbicidal activity,"Amaranthus palmeri [1]; 2 mg/ml, after 4-7 days",0
same,Post-emergence Amaranthus palmeri herbicidal activity,Amaranthus palmeri [2]; [12],40
CC(Cl)/C=C/C(=O)N(Cc1ccc(Cl)nc1)CC(C)C (centres unmarked) [Compound 2],Amaranthus palmeri soil germination,Amaranthus palmeri [3]; 0.01 mg/ml,60
same,Amaranthus palmeri soil germination,Amaranthus palmeri [3]; 0.025 mg/ml,50
same,Amaranthus palmeri soil germination,Amaranthus palmeri [3]; 0.05 mg/ml,0
same,Amaranthus palmeri soil germination,Amaranthus palmeri [3]; 0.1 mg/ml,0
same,"Herbicidal activity, foliar, Triticum vulgare",Triticum vulgare [4],90
same,"Herbicidal activity, foliar, Zea mays",Zea mays [5],90
same,"Herbicidal activity, soil germination, Abutilon theophrasti",Abutilon theophrasti,100
same,"Herbicidal activity, soil germination, Amaranthus palmeri",Amaranthus palmeri [6],0
same,"Herbicidal activity, soil germination, Echinochloa colonum",Echinochloa colonum,100
same,"Herbicidal activity, soil germination, Lolium rigidum",Lolium rigidum [7],90
same,"Herbicidal activity, soil germination, Setaria adhaerens",Setaria adhaerens,80
same,"Herbicidal activity, soil germination, Triticum vulgare",Triticum vulgare [8],100
same,"Herbicidal activity, soil germination, Zea mays",Zea mays [9],100
same,Residual activity: germination of newly sowed Amaranthus palmeri seeds,Amaranthus palmeri [10],no germination was observed
CC(Cl)/C=C/C(=O)N(CCC(C)C)Cc1ccc(Cl)nc1 (centres unmarked) [Compound 12],Pre-emergence Amaranthus palmeri herbicidal activity,Amaranthus palmeri [1]; 0.1 mg/ml,20
same,Pre-emergence Amaranthus palmeri herbicidal activity,Amaranthus palmeri [1]; 0.25 mg/ml,5
same,Post-emergence Amaranthus palmeri herbicidal activity,Amaranthus palmeri [2]; 0.05 mg/ml,0
same,Post-emergence Amaranthus palmeri herbicidal activity,Amaranthus palmeri [2]; 0.075 mg/ml,0
same,"Herbicidal effect against Setaria viridis, result in words",Setaria viridis,moderate herbicidal effect
COc1ccc(CN(CC(C)C)C(=O)/C=C/[C@@H](C)Cl)cc1 [reference compound],Amaranthus palmeri soil germination,Amaranthus palmeri [3]; 0.1 mg/ml,substantially less active
same,Lolium rigidum soil germination,Lolium rigidum [11]; 0.5 mg/ml,unable to reduce soil germination
CC(Cl)/C=C/C(=O)N(CCC(C)C)Cc1ccc(Cl)s1 (centres unmarked) [Compound 14],Pre-emergence Amaranthus palmeri herbicidal activity,Amaranthus palmeri [1]; 0.1 mg/ml,20
same,Pre-emergence Amaranthus palmeri herbicidal activity,Amaranthus palmeri [1]; 0.25 mg/ml,5
same,Post-emergence Amaranthus palmeri herbicidal activity,Amaranthus palmeri [2]; 0.25 mg/ml,20
same,Post-emergence Amaranthus palmeri herbicidal activity,Amaranthus palmeri [2]; 0.5 mg/ml,20
same,"Herbicidal effect against Setaria viridis, result in words",Setaria viridis,moderate herbicidal effect
C#CCOCC#CCN(CC(C)C)C(=O)/C=C/C(C)Cl (centres unmarked) [Compound 10],Pre-emergence Amaranthus palmeri herbicidal activity,Amaranthus palmeri [1]; 0.1 mg/ml,100
same,Pre-emergence Amaranthus palmeri herbicidal activity,Amaranthus palmeri [1]; 0.25 mg/ml,5
same,Pre-emergence Amaranthus palmeri herbicidal activity,"Amaranthus palmeri [1]; 2 mg/ml, after 4-7 days",0
same,Post-emergence Amaranthus palmeri herbicidal activity,Amaranthus palmeri [2]; [12],70
CCC#CCN(CC(C)C)C(=O)/C=C/C(C)Cl (centres unmarked) [Compound 8],Pre-emergence Amaranthus palmeri herbicidal activity,Amaranthus palmeri [1]; 0.1 mg/ml,100
same,Pre-emergence Amaranthus palmeri herbicidal activity,Amaranthus palmeri [1]; 0.25 mg/ml,40
same,Pre-emergence Amaranthus palmeri herbicidal activity,"Amaranthus palmeri [1]; 2 mg/ml, after 4-7 days",0
same,Post-emergence Amaranthus palmeri herbicidal activity,Amaranthus palmeri [2]; [12],30
CC(F)/C=C/C(=O)N(Cc1ccc(Cl)nc1)CC(C)C (centres unmarked) [Compound 3],Amaranthus palmeri soil germination,Amaranthus palmeri [3]; 0.1 mg/ml,30
Cc1ccsc1CN(CC(C)C)C(=O)/C=C/C(C)Cl (centres unmarked) [Compound 6],Amaranthus palmeri soil germination,Amaranthus palmeri [3]; 0.1 mg/ml,100
same,Amaranthus palmeri soil germination,Amaranthus palmeri [3]; 0.25 mg/ml,100
same,Amaranthus palmeri soil germination,Amaranthus palmeri [3]; 0.5 mg/ml,100
same,Amaranthus palmeri soil germination,Amaranthus palmeri [3]; 1 mg/ml,70
same,Amaranthus palmeri soil germination,"Amaranthus palmeri [3]; 2 mg/ml, after 4-7 days",0
same,"soil germination of Amaranthus palmeri, result in words",Amaranthus palmeri [3],active
same,Lolium rigidum soil germination,Lolium rigidum [11]; 2 mg/ml,30
same,"soil germination of Lolium rigidum, result in words",Lolium rigidum [11],active
CC(Cl)/C=C/C(=O)N(Cc1ccc(C#N)nc1)CC(C)C (centres unmarked) [Compound 13],Pre-emergence Amaranthus palmeri herbicidal activity,Amaranthus palmeri [1]; 0.1 mg/ml,30
same,Pre-emergence Amaranthus palmeri herbicidal activity,Amaranthus palmeri [1]; 0.25 mg/ml,0
same,Post-emergence Amaranthus palmeri herbicidal activity,Amaranthus palmeri [2]; 0.05 mg/ml,10
same,Post-emergence Amaranthus palmeri herbicidal activity,Amaranthus palmeri [2]; 0.075 mg/ml,0
same,"Herbicidal effect against Setaria viridis, result in words",Setaria viridis,moderate herbicidal effect
CC(Cl)/C=C/C(=O)N(CC(C)C)CC(C)C (centres unmarked) [Compound 1],Amaranthus palmeri soil germination,Amaranthus palmeri [3]; 0.01 mg/ml,80
same,Amaranthus palmeri soil germination,Amaranthus palmeri [3]; 0.025 mg/ml,30
same,Amaranthus palmeri soil germination,Amaranthus palmeri [3]; 0.05 mg/ml,0
same,Amaranthus palmeri soil germination,Amaranthus palmeri [3]; 0.1 mg/ml,0
same,Amaranthus palmeri soil germination,Amaranthus palmeri [3]; 0.25 mg/ml,0
same,"soil germination of Amaranthus palmeri, result in words",Amaranthus palmeri [3],active
same,Lolium rigidum soil germination,Lolium rigidum [11]; 0.5 mg/ml,60
same,"soil germination of Lolium rigidum, result in words",Lolium rigidum [11],active
same,"Herbicidal activity, soil germination, Abutilon theophrasti",Abutilon theophrasti,100
same,"Herbicidal activity, soil germination, Amaranthus palmeri",Amaranthus palmeri [6],0
same,"Herbicidal activity, soil germination, Echinochloa colonum",Echinochloa colonum,100
same,"Herbicidal activity, soil germination, Setaria adhaerens",Setaria adhaerens,60
same,"Herbicidal activity, soil germination, Triticum vulgare",Triticum vulgare [8],100
same,"Herbicidal activity, soil germination, Zea mays",Zea mays [9],100
same,Residual activity: germination of newly sowed Amaranthus palmeri seeds,Amaranthus palmeri [10],germination was observed
CC(Cl)/C=C/C(=O)N(CC(C)C)CC(F)(F)F (centres unmarked) [Compound 11],Pre-emergence Amaranthus palmeri herbicidal activity,Amaranthus palmeri [1]; 0.1 mg/ml,15
same,Pre-emergence Amaranthus palmeri herbicidal activity,Amaranthus palmeri [1]; 0.25 mg/ml,5
same,Pre-emergence Amaranthus palmeri herbicidal activity,"Amaranthus palmeri [1]; 2 mg/ml, after 4-7 days",0
same,Post-emergence Amaranthus palmeri herbicidal activity,Amaranthus palmeri [2]; [12],60
CCOCC#CCN(CC(C)C)C(=O)/C=C/C(C)Cl (centres unmarked) [Compound 9],Pre-emergence Amaranthus palmeri herbicidal activity,Amaranthus palmeri [1]; 0.1 mg/ml,60
same,Pre-emergence Amaranthus palmeri herbicidal activity,Amaranthus palmeri [1]; 0.25 mg/ml,50
same,Pre-emergence Amaranthus palmeri herbicidal activity,"Amaranthus palmeri [1]; 2 mg/ml, after 4-7 days",0
same,Post-emergence Amaranthus palmeri herbicidal activity,Amaranthus palmeri [2]; [12],80
CC(Cl)/C=C/C(=O)N(CCC(C)C)CCC(C)C (centres unmarked) [Compound 16],Pre-emergence Amaranthus palmeri herbicidal activity,Amaranthus palmeri [1]; 0.1 mg/ml,10
same,Pre-emergence Amaranthus palmeri herbicidal activity,Amaranthus palmeri [1]; 0.25 mg/ml,0
same,Post-emergence Amaranthus palmeri herbicidal activity,Amaranthus palmeri [2]; 0.25 mg/ml,50
same,Post-emergence Amaranthus palmeri herbicidal activity,Amaranthus palmeri [2]; 0.5 mg/ml,10
same,Inhibition of Setaria viridis,Setaria viridis; applying to the area under cultivation,more than 30%
same,"Herbicidal effect against Setaria viridis, result in words",Setaria viridis,very good herbicidal effect
